Patent publication US20240141020A1, “METHOD FOR MODULATING AFUCOSLYATION OF AN ANTIBODY PRODUCT” (LONZA BEND INC., priority 2021, published 2024)

System: CHO GS-KO cells
Assay: Modulation of afucosylation of a model IgG antibody produced by CHO GS-KO cells in supplemented culture medium (shake flasks, 5 days, LC-MS glycan profile)
Format: cell-based, Chinese hamster
Details: for Average % Afucosylation: mAb harvested day 5, G0/(G0F+G0), n = 3 technical replicates, control 5.21%
Protocol: CHO GS-KO cells were cultured in chemically defined culture medium supplemented with different chemicals at different concentrations to test the impact of those chemicals on the N-linked glycan profile of the product produced by the cultures. The product produced by this cell line was a model IgG antibody. • 1. Prepare culture media with supplemented chemicals • 2. Culture cells in media from (1) • 3. Harvest mAb produced in cultures and measure glycan profile of purified, reduced, and de-salted mAb products • 4. Determine statistical impact of chemical supplements on glycan product quality The chemicals that were supplemented to the medium included: • None (Control) • Mannose • N-Acetylmannosamine (ManNAc)+Galactose Concentrated stock solutions of mannose, ManNAc, and galactose were prepared and added into culture media. Specific volumes of the stock solution was supplemented to the culture media to generate the conditions in Table 1: GS-KO cells were inoculated at a density of 2×10^5 cells/mL into vented shake flasks containing medium from Table 1. Cultures were grown for five days in a temperature, CO2, and humidity-controlled incubator. Daily samples were taken to monitor the culture health. mAb product was harvested from day 5 shake flask cultures and purified through Protein A capture. Purified mAb was prepared for glycan analysis by reducing mAb to separate heavy and light chains. Reduced mAb was injected onto an LC-MS where the reduced mAb was de-salted by passing through a reverse-phase de-salting column on the LC prior to injection into a time of flight mass spectrometer (TOF MS) (Agilent 6230B). Three injections per sample was performed for technical replicates. Protein Metrics Software was used to process the resulting LC-MS data and the relative abundance of each glycan species was reported. The glycan species measured in processing included: G0, G0F, G1F, G2F, G1F+NeuAc, […]+NeuAc, […]+2NeuAc. Percent afucosulated mAb was calculated by dividing the total amount of afucosylated species by the sum of afucosylate and fucosylated species (G0/[…]+G0).

| SMILES | afucosylation compared to control (in words) (higher concentration of ManNAc (10 uM), with 1 mM galactose) | Average % Afucosylation (culture medium + 1 g/L Mannose) [%] | Average % Afucosylation (culture medium + 3 g/L Mannose) [%] | Average % Afucosylation (culture medium + 6 g/L Mannose) [%] | high mannose species of the antibody product (in words) (mannose in amounts greater than about 1 g/L) | % afucosylated mAb compared to control (in words) (supplementation of culture medium with mannose, 1, 3, 6 g/L) |
| --- | --- | --- | --- | --- | --- | --- |
| CC(=O)N[C@@H]1C(O)O[C@H](CO)[C@@H](O)[C@@H]1O (stereo partly drawn) [ManNAc, N-Acetylmannosamine] | decreasing afucosylation slightly | – | – | – | – | – |
| O=C[C@@H](O)[C@@H](O)[C@H](O)[C@H](O)CO [Mannose, mannose] | – | 5.63 | 6.10 | 7.27 | does not appear to result in an increase in high mannose species | significantly increased |
